For 5 molecules, IC50 results are on record in ChEMBL document CHEMBL4052588, “Design of a Biased Potent Small Molecule Inhibitor of the Bromodomain and PHD Finger-Containing (BRPF) Proteins Suitable for Cellular and in Vivo Studies” (J Med Chem, 2017).

One assay concerns the target T1, Peregrin (Homo sapiens, UniProt P55201).
T1 sequence (P55201 whole entry): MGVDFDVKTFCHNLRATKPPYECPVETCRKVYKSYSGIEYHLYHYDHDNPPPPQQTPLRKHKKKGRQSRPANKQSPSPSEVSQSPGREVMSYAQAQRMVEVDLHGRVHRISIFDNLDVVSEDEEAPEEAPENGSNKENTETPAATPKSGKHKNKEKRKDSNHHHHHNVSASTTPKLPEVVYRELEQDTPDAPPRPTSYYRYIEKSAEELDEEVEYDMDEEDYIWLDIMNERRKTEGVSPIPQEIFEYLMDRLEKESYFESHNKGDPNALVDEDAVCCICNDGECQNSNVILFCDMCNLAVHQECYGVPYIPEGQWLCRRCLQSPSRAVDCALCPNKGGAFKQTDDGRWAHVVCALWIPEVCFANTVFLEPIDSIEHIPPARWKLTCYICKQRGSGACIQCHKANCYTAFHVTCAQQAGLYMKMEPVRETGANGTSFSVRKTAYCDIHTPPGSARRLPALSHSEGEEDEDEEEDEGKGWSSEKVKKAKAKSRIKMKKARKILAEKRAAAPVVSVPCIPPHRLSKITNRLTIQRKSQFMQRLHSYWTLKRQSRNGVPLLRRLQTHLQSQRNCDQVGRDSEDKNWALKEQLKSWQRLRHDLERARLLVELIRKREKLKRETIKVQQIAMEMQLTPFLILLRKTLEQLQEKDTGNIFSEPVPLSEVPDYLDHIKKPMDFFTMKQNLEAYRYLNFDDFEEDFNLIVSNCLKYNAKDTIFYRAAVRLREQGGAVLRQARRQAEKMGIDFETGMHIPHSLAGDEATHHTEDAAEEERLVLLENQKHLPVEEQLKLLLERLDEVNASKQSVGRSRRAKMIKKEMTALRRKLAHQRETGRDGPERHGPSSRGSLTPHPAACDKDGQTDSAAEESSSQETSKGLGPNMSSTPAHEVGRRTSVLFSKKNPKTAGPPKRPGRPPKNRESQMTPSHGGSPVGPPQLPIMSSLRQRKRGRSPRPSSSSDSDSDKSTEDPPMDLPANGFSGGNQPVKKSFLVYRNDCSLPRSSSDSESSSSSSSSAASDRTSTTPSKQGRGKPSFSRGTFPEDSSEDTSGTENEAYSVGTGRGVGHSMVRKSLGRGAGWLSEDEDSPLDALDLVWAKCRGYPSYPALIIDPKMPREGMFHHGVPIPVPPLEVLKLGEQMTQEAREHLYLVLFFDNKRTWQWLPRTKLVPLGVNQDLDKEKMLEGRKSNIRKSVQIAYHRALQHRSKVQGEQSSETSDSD
Kind of assay: Inhibition of human BRPF1 expressed in Escherichia coli BL21 after 1 hr by BROMOscan assay.

In assay [1] the target is T2, Bromodomain-containing protein 9 (Homo sapiens, UniProt Q9H8M2).
T2 sequence (Q9H8M2 whole entry): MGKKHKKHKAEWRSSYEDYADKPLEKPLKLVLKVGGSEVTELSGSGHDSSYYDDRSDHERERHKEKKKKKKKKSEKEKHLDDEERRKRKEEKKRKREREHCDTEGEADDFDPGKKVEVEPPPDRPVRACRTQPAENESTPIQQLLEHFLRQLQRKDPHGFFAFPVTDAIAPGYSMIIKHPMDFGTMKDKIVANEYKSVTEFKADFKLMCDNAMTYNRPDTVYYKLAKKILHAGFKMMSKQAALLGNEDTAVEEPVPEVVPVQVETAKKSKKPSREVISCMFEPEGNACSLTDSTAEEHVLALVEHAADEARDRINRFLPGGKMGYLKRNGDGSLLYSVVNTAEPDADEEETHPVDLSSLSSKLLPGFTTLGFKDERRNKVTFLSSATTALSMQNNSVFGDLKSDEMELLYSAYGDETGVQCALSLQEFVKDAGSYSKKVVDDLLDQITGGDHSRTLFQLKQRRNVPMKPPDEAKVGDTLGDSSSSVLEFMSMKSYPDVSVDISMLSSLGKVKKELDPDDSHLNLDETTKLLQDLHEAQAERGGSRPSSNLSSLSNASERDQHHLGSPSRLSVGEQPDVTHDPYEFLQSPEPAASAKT
Kind of assay: Inhibition of human BRD9 expressed in Escherichia coli BL21 after 1 hr by BROMOscan assay.

In assay [2] the target is T3, Bromodomain and PHD finger-containing protein 3 (Homo sapiens, UniProt Q9ULD4).
T3 sequence (Q9ULD4 whole entry): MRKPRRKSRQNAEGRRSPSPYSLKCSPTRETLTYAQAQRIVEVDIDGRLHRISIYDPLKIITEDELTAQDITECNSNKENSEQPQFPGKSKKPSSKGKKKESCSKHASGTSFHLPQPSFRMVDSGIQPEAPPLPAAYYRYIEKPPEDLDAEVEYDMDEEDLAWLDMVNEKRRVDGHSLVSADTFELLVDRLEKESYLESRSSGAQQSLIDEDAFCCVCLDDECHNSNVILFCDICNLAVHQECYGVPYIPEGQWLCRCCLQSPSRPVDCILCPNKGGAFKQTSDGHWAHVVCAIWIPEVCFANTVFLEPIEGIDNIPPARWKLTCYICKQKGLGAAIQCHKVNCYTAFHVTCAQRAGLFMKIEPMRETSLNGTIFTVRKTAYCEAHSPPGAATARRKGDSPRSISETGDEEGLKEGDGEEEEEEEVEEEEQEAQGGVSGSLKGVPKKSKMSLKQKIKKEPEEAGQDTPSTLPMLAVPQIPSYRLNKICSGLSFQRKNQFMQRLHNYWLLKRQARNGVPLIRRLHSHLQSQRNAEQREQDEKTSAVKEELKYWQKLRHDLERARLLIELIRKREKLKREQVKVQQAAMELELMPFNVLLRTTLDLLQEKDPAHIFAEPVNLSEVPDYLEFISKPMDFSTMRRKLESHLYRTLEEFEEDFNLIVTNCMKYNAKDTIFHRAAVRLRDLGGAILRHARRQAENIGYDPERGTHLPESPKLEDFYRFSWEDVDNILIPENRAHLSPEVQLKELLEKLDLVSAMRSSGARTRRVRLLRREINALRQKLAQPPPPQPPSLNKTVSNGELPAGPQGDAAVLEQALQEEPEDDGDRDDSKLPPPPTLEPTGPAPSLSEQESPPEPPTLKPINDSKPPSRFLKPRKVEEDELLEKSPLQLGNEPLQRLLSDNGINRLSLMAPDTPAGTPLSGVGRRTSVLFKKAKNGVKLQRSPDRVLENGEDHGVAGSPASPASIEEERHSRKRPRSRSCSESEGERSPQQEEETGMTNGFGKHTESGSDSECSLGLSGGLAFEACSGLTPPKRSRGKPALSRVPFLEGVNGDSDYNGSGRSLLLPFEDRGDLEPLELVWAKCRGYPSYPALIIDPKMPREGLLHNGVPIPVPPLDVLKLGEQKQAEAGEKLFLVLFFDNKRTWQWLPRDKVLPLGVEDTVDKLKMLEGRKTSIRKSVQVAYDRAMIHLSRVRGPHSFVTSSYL
The assay can be described thus: Inhibition of human BRPF3 expressed in Escherichia coli BL21 after 1 hr by BROMOscan assay.

Broadly, the IC50 is the concentration at which inhibition is half-maximal. Lower therefore signals higher potency. Consider `COc1ccccc1C(=O)Nc1cc2cc(C)c(=O)n(C)c2cc1N1CCCC1`, for which the IC50 was 220 nM at Peregrin, 420 nM in assay [1] and 12000 nM in assay [2].

On to `Cc1cc2cc(NS(=O)(=O)c3ccc(C#N)cc3)ccc2n(C)c1=O`, for which the IC50 is 7.9 nM against Peregrin, 310 nM in assay [1] and 260 nM in assay [2].

As for `CCc1cc2cc(NS(=O)(=O)c3ccc(C#N)cc3)ccc2n(CC)c1=O`, the IC50 (on Peregrin; in assay [1]; in assay [2]) was more than 100000 nM each time.

For the molecule `Cn1c(=O)ccc2cc(NS(=O)(=O)c3ccc(C#N)c(Cl)c3)ccc21`, the figures for the IC50 (at Peregrin; in assay [1]; in assay [2]) were 62 nM, 2500 nM and 2300 nM, respectively.

In the case of `COc1cc2c(cc1NS(=O)(=O)c1ccc(C#N)cc1)c(C)cc(=O)n2C`, the IC50 was found to be 60 nM against Peregrin, 890 nM in assay [1] and 9300 nM in assay [2].
